Results on four compounds are retold here after patent US10721934B2, “Enhanced preservative” (Arch Chemicals, Inc., priority 2013, dated 2020).

Common to all, as to assay type: cell-based
In one test the test system is Candida albicans. Description: MIC test, 96 well microtiter plate. The settings on record: single chemical. As to the method: (§1) MIC set up: A 96 well microtiter plate Minimum Inhibitory Concentration (MIC) test was run in broth suitable for the test organism. Serially diluted actives were prepared in sterilized water, and the start-up concentration varied depending on the efficacy range. Inocula prepared in 2× suitable broth was added into each well, and the final concentrations of bacteria were adjusted to approximately 5×10^5.
(§2) Further MIC tests were conducted using different amine compounds in combination with a pyrithione and two different isothiazolinones. The procedures described in Example No. 1 were used.

The next test concerns Staphylococcus aureus. Description: MIC test, 96 well microtiter plate. The note with it: single chemical. The protocol:
as §1, §2

The next test has as its system Escherichia coli. Nature of the test: MIC test, 96 well microtiter plate. The note with it: single chemical. The protocol: as §1, §2
The test system of another test is Aspergillus brasiliensis. Nature of the test: MIC test, 96 well microtiter plate. The note with it: single chemical. The protocol: as §1, §2
Another test relates to Aureobasidium pullulans. Nature of the test: MIC test, 96 well microtiter plate. The note with it: single chemical. As to the method: as §1, §2
Test [1] has as its system mixed bacterial inoculum (Pseudomonas aeruginosa, Enterobacter cloacae, Escherichia coli, Acinetobacter calcoaceticus). Nature of the test: Repeated inoculation of standard acrylic paint, streak plate rating. As to the method:
In the following experiments, a pyrithione, an isothiazolinone, and a biocide enhancing agent in accordance with the present disclosure were combined with a standard acrylic paint. The concentrations of the pyrithione, the isothiazolinone and the biocide enhancing agent were varied. The pyrithione, the isothiazolinone and the biocide enhancing agent were added alone and in various mixtures to the standard acrylic paint.
The acrylic paint was then inoculated three times using a mixed bacterial inoculum. The bacterial inoculum, which comprised a bacterial suspension in water, contained the following four bacteria in equal proportions.
The samples were streak plated at 24, 48, and 72 hours after inoculation. The streak plates were rated as follows;

Test [2] relates to Pseudomonas aeruginosa ATCC 15442. Nature of the test: Minimum Inhibitory Concentration (MIC) test, 96 well microtiter plate. The note with it: for biocide enhancing effect on zinc pyrithione: MIC of blends with ZnPT, Table 1; for MIC: Pseudomonas aeruginosa, ATCC15442, single chemical. As to the method:
Microorganisms: Pseudomonas aeruginosa ATCC 15442
as §1

SMILES strings stand for the structures. ≈ marks a conversion by molar mass, not a printed value.

As to `CCCCn1sc2ccccc2c1=O` [BBIT], the “Minimum Inhibitory Concentration” value in the test with Candida albicans was 3.75 ppm; in the test on Staphylococcus aureus, 5.0 ppm; with Escherichia coli, 80.0 ppm; in the test with Aspergillus brasiliensis, 1.9 ppm; in the test on Aureobasidium pullulans, 2.5 ppm.
Broadly, the MIC is the smallest concentration in the dilution series that meets the test's criterion for growth inhibition. `CCCCCCCCCCCCN` [DDA, 1-dodecylamine]: the streak plate rating is 5 (>45 viable microorganisms Severely contaminated) in test [1] (Set Four, DDA 600 ppm, 1st inoculation 24 h); 2 (6-15 viable microorganisms Lightly contaminated) in test [1] (Set Four, DDA 600 ppm, 1st inoculation 48 h); 0 in test [1] (Set Four, DDA 600 ppm, 1st inoculation 72 h); 5 (>45 viable microorganisms Severely contaminated) in test [1] (Set Four, DDA 600 ppm, 2nd inoculation 24 h); 5 (>45 viable microorganisms Severely contaminated) in test [1] (Set Four, DDA 600 ppm, 2nd inoculation 48 h); 5 (>45 viable microorganisms Severely contaminated) in test [1] (Set Four, DDA 600 ppm, 2nd inoculation 72 h). In addition, the streak plate rating is 5 (>45 viable microorganisms Severely contaminated) in test [1] (Set Four, DDA 600 ppm, 3rd inoculation 24 h); 5 (>45 viable microorganisms Severely contaminated) in test [1] (Set Four, DDA 600 ppm, 3rd inoculation 48 h); 5 (>45 viable microorganisms Severely contaminated) in test [1] (Set Four, DDA 600 ppm, 3rd inoculation 72 h); 5 (>45 viable microorganisms Severely contaminated) in test [1] (Set One, DDA 600 ppm, 1st inoculation 24 h); 5 (>45 viable microorganisms Severely contaminated) in test [1] (Set One, DDA 600 ppm, 1st inoculation 48 h); 5 (>45 viable microorganisms Severely contaminated) in test [1] (Set One, DDA 600 ppm, 1st inoculation 72 h). Also, the streak plate rating in test [1] (Set One, DDA 600 ppm, 2nd inoculation 24 h) is recorded as 5 (>45 viable microorganisms Severely contaminated); in test [1] (Set One, DDA 600 ppm, 2nd inoculation 48 h) it was 5 (>45 viable microorganisms Severely contaminated); in test [1] (Set One, DDA 600 ppm, 3rd inoculation 24 h) it was 5 (>45 viable microorganisms Severely contaminated); in test [1] (Set One, DDA 600 ppm, 3rd inoculation 48 h), 5 (>45 viable microorganisms Severely contaminated); in test [1] (Set One, DDA 600 ppm, 3rd inoculation 72 h), 5 (>45 viable microorganisms Severely contaminated); in test [1] (Set One, DDA 900 ppm, 1st inoculation 24 h) it was 5 (>45 viable microorganisms Severely contaminated). Besides, the streak plate rating in test [1] (Set One, DDA 900 ppm, 1st inoculation 48 h) is 5 (>45 viable microorganisms Severely contaminated); in test [1] (Set One, DDA 900 ppm, 1st inoculation 72 h), 5 (>45 viable microorganisms Severely contaminated); in test [1] (Set One, DDA 900 ppm, 2nd inoculation 24 h), 5 (>45 viable microorganisms Severely contaminated); in test [1] (Set One, DDA 900 ppm, 2nd inoculation 48 h) it was 5 (>45 viable microorganisms Severely contaminated); in test [1] (Set One, DDA 900 ppm, 3rd inoculation 24 h) it was 5 (>45 viable microorganisms Severely contaminated); in test [1] (Set One, DDA 900 ppm, 3rd inoculation 48 h), 5 (>45 viable microorganisms Severely contaminated). Further, the streak plate rating in test [1] (Set One, DDA 900 ppm, 3rd inoculation 72 h) is reported as 5 (>45 viable microorganisms Severely contaminated); in test [1] (Set One, DDA 1200 ppm, 1st inoculation 24 h), 5 (>45 viable microorganisms Severely contaminated); in test [1] (Set One, DDA 1200 ppm, 1st inoculation 48 h), 5 (>45 viable microorganisms Severely contaminated); in test [1] (Set One, DDA 1200 ppm, 1st inoculation 72 h), 5 (>45 viable microorganisms Severely contaminated); in test [1] (Set One, DDA 1200 ppm, 2nd inoculation 24 h), 5 (>45 viable microorganisms Severely contaminated); in test [1] (Set One, DDA 1200 ppm, 2nd inoculation 48 h), 5 (>45 viable microorganisms Severely contaminated). The streak plate rating is 5 (>45 viable microorganisms Severely contaminated) in test [1] (Set One, DDA 1200 ppm, 3rd inoculation 24 h); 5 (>45 viable microorganisms Severely contaminated) in test [1] (Set One, DDA 1200 ppm, 3rd inoculation 48 h); 5 (>45 viable microorganisms Severely contaminated) in test [1] (Set One, DDA 1200 ppm, 3rd inoculation 72 h); 2 (6-15 viable microorganisms Lightly contaminated) in test [1] (Set One, DDA 1800 ppm, 1st inoculation 24 h); 3 (16-30 viable microorganisms Moderately contaminated) in test [1] (Set One, DDA 1800 ppm, 1st inoculation 48 h); 1 (1-5 viable microorganisms Very lightly contaminated) in test [1] (Set One, DDA 1800 ppm, 1st inoculation 72 h). In addition, the streak plate rating in test [1] (Set One, DDA 1800 ppm, 2nd inoculation 24 h) is 5 (>45 viable microorganisms Severely contaminated); in test [1] (Set One, DDA 1800 ppm, 2nd inoculation 48 h), 5 (>45 viable microorganisms Severely contaminated); in test [1] (Set One, DDA 1800 ppm, 3rd inoculation 24 h), 5 (>45 viable microorganisms Severely contaminated); in test [1] (Set One, DDA 1800 ppm, 3rd inoculation 48 h) it was 5 (>45 viable microorganisms Severely contaminated); in test [1] (Set One, DDA 1800 ppm, 3rd inoculation 72 h) it was 5 (>45 viable microorganisms Severely contaminated); in test [1] (Set Two, DDA alone, ppm not given, 1st inoculation 24 h), 5 (>45 viable microorganisms Severely contaminated). Further, the streak plate rating in test [1] (Set Two, DDA alone, ppm not given, 1st inoculation 48 h) was 5 (>45 viable microorganisms Severely contaminated); in test [1] (Set Two, DDA alone, ppm not given, 1st inoculation 72 h), 5 (>45 viable microorganisms Severely contaminated); in test [1] (Set Two, DDA alone, ppm not given, 2nd inoculation 24 h), 5 (>45 viable microorganisms Severely contaminated); in test [1] (Set Two, DDA alone, ppm not given, 2nd inoculation 48 h) it was 5 (>45 viable microorganisms Severely contaminated); in test [1] (Set Two, DDA alone, ppm not given, 2nd inoculation 72 h), 5 (>45 viable microorganisms Severely contaminated); in test [1] (Set Two, DDA alone, ppm not given, 3rd inoculation 24 h) it was 5 (>45 viable microorganisms Severely contaminated). Besides, the streak plate rating in test [1] (Set Two, DDA alone, ppm not given, 3rd inoculation 48 h) is 5 (>45 viable microorganisms Severely contaminated); in test [1] (Set Two, DDA alone, ppm not given, 3rd inoculation 72 h) it was 5 (>45 viable microorganisms Severely contaminated). In addition, the “biocide enhancing effect on the isothiazolin” value in test [2] (MIC of blends with BIT, Table 2) was “had an enhancing effect on the isothiazolin”. Also, the “biocide enhancing effect on zinc pyrithione” value in test [2] was “enhance the effectiveness of the zinc pyrithione”. Also, the minimum inhibitory concentration (MIC) in test [2] came to 200 µg/mL (≈ 1080 µM).
With `CCCCCCCCCCCCN1CCOCC1` [DDM, 4-Dodecylmorpholine], the streak plate rating in test [1] (Set Three, DDM 1200 ppm, 1st inoculation 24 h) is listed as 5 (>45 viable microorganisms Severely contaminated); in test [1] (Set Three, DDM 1200 ppm, 1st inoculation 48 h), 5 (>45 viable microorganisms Severely contaminated); in test [1] (Set Three, DDM 1200 ppm, 1st inoculation 72 h), 5 (>45 viable microorganisms Severely contaminated); in test [1] (Set Three, DDM 1200 ppm, 2nd inoculation 24 h), 5 (>45 viable microorganisms Severely contaminated); in test [1] (Set Three, DDM 1200 ppm, 2nd inoculation 48 h), 5 (>45 viable microorganisms Severely contaminated); in test [1] (Set Three, DDM 1200 ppm, 2nd inoculation 72 h) it was 5 (>45 viable microorganisms Severely contaminated). Also, the streak plate rating in test [1] (Set Three, DDM 1200 ppm, 3rd inoculation 24 h) was 5 (>45 viable microorganisms Severely contaminated); in test [1] (Set Three, DDM 1200 ppm, 3rd inoculation 48 h), 5 (>45 viable microorganisms Severely contaminated); in test [1] (Set Three, DDM 1200 ppm, 3rd inoculation 72 h), 5 (>45 viable microorganisms Severely contaminated).
As to `CCCCCCCCCCCCCCCCCCN(C)C` [DMODA, N,N-Dimethyloctadecylamine], in test [2], the “biocide enhancing effect on zinc pyrithione” value is listed as “enhance the effectiveness of the zinc pyrithione” and the MIC was above 640 µg/mL.
